Assays:
Assay type in all cases: biochemical
KRAS G12D = target: T1, KRAS G12D (Homo sapiens, UniProt P01116, G12D); assay: HTRF KRAS-SOS1 interaction assay, KRAS G12D; conditions: binned ≤2 μM / >2 μM, read-out: Inhibition of KRAS G12D (IC50)
T1 construct: made in house; host or cells: E. coli, e.g. BL21 (DE3)
Procedure, shortened: (§1)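 GST-tagged KRAS (WT or mutant) with anti-GST-Eu donor, mixed with His-hSOS1 and anti-6His-XL665 acceptor. Buffer ~5 mM HEPES pH 7.4, ~150 mM NaCl, ~1 mM DTT, 0.05% BSA, 0.0025% Igepal; incubated about 10 min or longer. HTRF 665/620 ratio, compounds in duplicate up to 10 μM, IC50 derived.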

KRAS WT = target: T2, KRAS WT (Homo sapiens, UniProt P01116); assay: HTRF KRAS-SOS1 interaction assay, wildtype KRAS; conditions: binned ≤2 μM / >2 μM, read-out: Inhibition of KRAS WT (IC50)
T2 construct: made in house; host or cells: E. coli, e.g. BL21 (DE3)
T2 sequence (P01116 1-188 isoform P01116-2): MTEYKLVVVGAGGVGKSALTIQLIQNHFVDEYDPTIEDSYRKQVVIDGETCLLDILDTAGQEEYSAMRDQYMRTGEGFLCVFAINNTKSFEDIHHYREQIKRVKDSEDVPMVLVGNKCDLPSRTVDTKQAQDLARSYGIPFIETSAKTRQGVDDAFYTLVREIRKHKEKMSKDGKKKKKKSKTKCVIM
Procedure, shortened: as §1

KRAS G12V = target: T3, KRAS G12V (Homo sapiens, UniProt P01116, G12V); assay: HTRF KRAS-SOS1 interaction assay, KRAS G12V; conditions: binned ≤2 μM / >2 μM, read-out: Inhibition of KRAS G12V (IC50)
T3 construct: made in house; host or cells: E. coli, e.g. BL21 (DE3)
T3 sequence (P01116 1-188 isoform P01116-2 G12V): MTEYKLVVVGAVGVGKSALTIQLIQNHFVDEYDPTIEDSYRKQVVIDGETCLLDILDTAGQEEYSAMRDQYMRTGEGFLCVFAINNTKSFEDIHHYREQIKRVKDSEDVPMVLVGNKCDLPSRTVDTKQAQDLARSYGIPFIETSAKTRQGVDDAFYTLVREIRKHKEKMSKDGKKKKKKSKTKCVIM
Procedure, shortened: as §1

KRAS G12S = target: T4, KRAS G12S (Homo sapiens, UniProt P01116, G12S); assay: HTRF KRAS-SOS1 interaction assay, KRAS G12S; conditions: binned ≤2 μM / >2 μM, read-out: Inhibition of KRAS G12S (IC50)
T4 construct: made in house; host or cells: E. coli, e.g. BL21 (DE3)
T4 sequence (P01116 1-188 isoform P01116-2 G12S): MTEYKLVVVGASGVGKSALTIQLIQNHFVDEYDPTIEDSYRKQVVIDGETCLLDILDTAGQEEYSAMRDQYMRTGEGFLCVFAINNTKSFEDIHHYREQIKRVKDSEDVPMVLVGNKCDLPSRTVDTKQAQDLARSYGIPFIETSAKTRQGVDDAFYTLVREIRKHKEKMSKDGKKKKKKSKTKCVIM
Procedure, shortened: as §1

Measured: IC50

T1 sequence (P01116 1-188 isoform P01116-2 G12D): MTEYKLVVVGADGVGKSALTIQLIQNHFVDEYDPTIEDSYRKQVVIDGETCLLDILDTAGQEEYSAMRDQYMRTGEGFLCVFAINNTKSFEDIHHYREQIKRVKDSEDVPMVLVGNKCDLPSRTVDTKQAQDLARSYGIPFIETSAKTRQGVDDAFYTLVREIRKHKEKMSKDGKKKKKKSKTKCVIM

C[C@H](c1cccnc1N)N1CCOc2c(C(F)(F)F)c(-c3ccc(F)c4sc(N)c(C#N)c34)c(F)c3nc(OC[C@@]45CCCN4CC(CN(C)C)C5)nc1c23 (mixture of isomers) [Compound 721, 2-amino-4-(4-((R)-1-(2-aminopyridin-3-yl)ethyl)-2-(((7aS)-2-((dimethylamino)methyl)tetrahydro-1H-pyrrolizin-7a(5H)-yl)methoxy)-10-fluoro-8-(trifluoromethyl)-5,6-dihydro-4H-[1,4]oxazepino[5,6,7-de]quinazolin-9-yl)-7-fluorobenzo[b]thiophene-3-carbonitrile]
≤ 2 µM: all assays above

C#Cc1c(F)ccc2cc(O)cc(-c3nc4c5c(nc(OC[C@@H]6CCCN6C)nc5c3F)N(C(C)c3cccnc3N)CCO4)c12 (mixture of isomers) [Compound 722, 4-(10-(1-(2-aminopyridin-3-yl)ethyl)-4-fluoro-2-(((S)-1-methylpyrrolidin-2-yl)methoxy)-9,10-dihydro-8H-7-oxa-1,3,6,10-tetraazacyclohepta[de]naphthalen-5-yl)-5-ethynyl-6-fluoronaphthalen-2-ol]
≤ 2 µM: all assays above

C#Cc1c(F)ccc2cc(O)cc(-c3nc4c5c(nc(OC[C@@]67CCCN6C[C@H](F)C7)nc5c3F)N(C(C)c3cccnc3N)CCO4)c12 (mixture of isomers) [Compound 742, 4-(10-(1-(2-aminopyridin-3-yl)ethyl)-4-fluoro-2-(((2R,7aS)-2-fluorotetrahydro-1H-pyrrolizin-7a (5H)-yl)methoxy)-9,10-dihydro-8H-7-oxa-1,3,6,10-tetraazacyclohepta[de]naphthalen-5-yl)-5-ethynyl-6-fluoronaphthalen-2-ol]
≤ 2 µM: all assays above

CC(=O)c1c(F)ccc2cc(O)cc(-c3nc4c5c(nc(OC[C@@]67CCCN6C[C@H](F)C7)nc5c3F)N(C(C)c3cccnc3N)CCO4)c12 (mixture of isomers) [Compound 744]
≤ 2 µM: all assays above

C/C=C/[C@H](c1cccnc1N)N1CCOc2c(Cl)c(-c3ccc(F)c4sc(N)c(C#N)c34)c(F)c3nc(OC[C@@]45CCCN4C[C@H](F)C5)nc1c23 (mixture of isomers) [Compound 756, 2-amino-4-(4-((R,E)-1-(2-aminopyridin-3-yl)but-2-en-1-yl)-8-chloro-10-fluoro-2-(((2R,7aS)-2-fluorotetrahydro-1H-pyrrolizin-7a(5H)-yl)methoxy)-5,6-dihydro-4H-[1,4]oxazepino[5,6,7-de]quinazolin-9-yl)-7-fluorobenzo[b]thiophene-3-carbonitrile]
≤ 2 µM: all assays above

CN1CCC[C@H]1COc1nc2c3c(c(Cl)c(-c4ccc(F)c5sc(N)c(C#N)c45)c(F)c3n1)OCCN2C(c1cccnc1N)C(F)F (mixture of isomers) [Compound 769, 2-amino-4-(4-(1-(2-aminopyridin-3-yl)-2,2-difluoroethyl)-8-chloro-10-fluoro-2-(((S)-1-methylpyrrolidin-2-yl)methoxy)-5,6-dihydro-4H-[1,4]oxazepino[5,6,7-de]quinazolin-9-yl)-7-fluorobenzo[b]thiophene-3-carbonitrile]
≤ 2 µM: all assays above

Source: patent publication US12668600B2 (Kumquat Biosciences Inc., priority 2023, dated 2026)
